This experiment can be described thus: blockers of an Epstein-Barr virus protein-peptide interaction – biochemical, fluorescence polarization, dose response (AID 1419). As to conditions: cell-free protein-peptide binding, 2 h; for fold change: measured here: P channel fold over control, at 54 µM. (Fluorescence polarisation rises when a labelled molecule tumbles more slowly, as on binding a larger partner.)

Calls of active or inactive are those of the source. How the calls were made is not given here. Some results are limits rather than exact numbers.

The term IC50 denotes the concentration needed to halve the response being measured. For the molecule `O=C(O)c1ccccc1C1=Nc2ccc(O)cc2Oc2cc(O)ccc21`, the IC50 was less than 0.42 µM and the fold change was 14.2.
With `CC(=O)Nc1cccc(C2=CC(c3ccco3)n3ncnc3N2)c1` (stereo not given), the IC50 was 1.48 µM and the fold change stood at 20.3.
Taken in the same sequence, the figures for `O=c1[nH]c(=O)n(Cc2ccccc2)c(O)c1/C=C1\C=Nc2ccccc21` were 2.18 µM and 6.67.
Taken in the same sequence, the figures for `Cc1cc(C)n2c(SC/C(O)=C(\C#N)c3nc4ccccc4[nH]3)nnc2n1` were 20.1 µM and 1.1.
Taken in the same sequence, the figures for `COc1cccc(Nc2ncccc2C(=O)NCc2ccccc2)c1` were 2.59 µM and 3.14.
In the case of `CCSc1nnc(-c2sc3nnc(-c4ccccc4)c(-c4ccccc4)c3c2N)o1`, the IC50 was 2.2 µM and the fold change was found to be 36.9.
Taken in the same sequence, the figures for `CCOc1cccc(C2C(C(=O)c3ccc(C)o3)=C(O)C(=O)N2c2nccs2)c1` (stereo not given) were less than 0.42 µM and 8.6.
Taken in the same sequence, the figures for `OCCCc1nc2n(n1)C(c1cccs1)C=C(c1ccccc1)N2` (stereo not given) were less than 0.42 µM and 43.2.
Taken in the same sequence, the figures for `COc1ccc(/C=C2\CCCc3c2nc2ccccc2c3C(=O)O)cc1OC` were less than 0.42 µM and 20.3.
For `CCC1=NN2C(=N)/C(=C\c3cccn3-c3ccc(Br)cc3)C(=O)N=C2S1`, the IC50 is > 54 µM (inactive) and the fold change turned out to be 1.04.
Consider `COC(=O)c1c(Cl)c2n3ccccc3c(C)c(-c3ccccc3)c-2c1C(=O)OC`, for which the IC50 was 2.39 µM and the fold change turned out to be 2.2.
Taken in the same sequence, the figures for `COc1ccc(C(CC(=O)N2CCCC2)c2c(OC)cc(OC)c3c(-c4ccccc4)cc(=O)oc23)cc1` (stereo not given) were > 54 µM (inactive) and 0.95.
Taken in the same sequence, the figures for `O=c1nc2s/c(=C\c3ccc(-c4ccccc4[N+](=O)[O-])o3)c(=O)n2nc1-c1ccccc1` were less than 0.42 µM and 9.05.
Taken in the same sequence, the figures for `Cc1ccc(C2C(C(=O)c3cccs3)=C(O)C(=O)N2c2nnc(C)s2)cc1` (stereo not given) were 0.9 µM and 3.94.
Take `Nc1c(S(=O)(=O)c2ccccc2)c2nc3ccccc3nc2n1Cc1ccco1`: the IC50 is > 54 µM (inactive) and the fold change came out at 1.32.
Taken in the same sequence, the figures for `COc1ccc2nc(N3C(=O)/C(=C/c4ccc(Cl)cc4)NC3=S)sc2c1` were > 54 µM (inactive) and 1.37.
Taken in the same sequence, the figures for `N#C/C(=C\C1=C(N2CCOCC2)C(=C\c2ccccc2)/CC1)C(=O)Nc1ccccc1F` were 1.23 µM and 2.94.
Taken in the same sequence, the figures for `O=C1/C(=N\S(=O)(=O)c2cccs2)C([n+]2cccc(Cc3ccccc3)c2)=C([O-])c2ccccc21` were 7.66 µM and 13.9.
In the case of `CCOC(=O)[C@]1(C#N)[C@@H]2C=CC(C(C)=O)=CN2[C@@H](C(N)=O)[C@@H]1c1ccsc1`, the IC50 is 4.35 µM and the fold change was found to be 3.68.
Taken in the same sequence, the figures for `O=C(/C(=C(\[O-])c1ccccc1)[n+]1ccc2ccccc2c1)c1ccc(Cl)cc1` were 8.26 µM and 2.35.
Taken in the same sequence, the figures for `COc1ccc(NC(=O)C2Cc3ccccc3CN2C(=O)c2ccccc2)cn1` (stereo not given) were 8.48 µM and 3.29.
For `O=C(Nc1cccc(Cl)c1)c1cc(N=Nc2ccc([N+](=O)[O-])cc2Cl)ccc1O`, the IC50 was 17.7 µM and the fold change is 0.99.
Turning to `COc1cccc(/C(O)=C/c2nc3ccc(C(=O)NCCc4ccc(Cl)cc4)cc3[nH]c2=O)c1`, the IC50 was less than 0.42 µM and the fold change was determined as 12.1.
Taken in the same sequence, the figures for `O=C(CSc1nc(-c2ccc(F)cc2)nc2c1Cc1ccccc1O2)Nc1cccc(C(=O)O)c1` were 1.63 µM and 1.13.
Taken in the same sequence, the figures for `Cc1cc[n+](-c2[nH]c(=O)sc2/C=N/NC([S-])=Nc2ccccc2)cc1` were > 54 µM (inactive) and 1.42.
Taken in the same sequence, the figures for `Oc1oc(-c2ccccc2)nc1C=Nc1cccc2ccccc12` were 7.47 µM and 3.16.
Regarding `Cc1ccnc(N2C(=O)c3cccc4c([N+](=O)[O-])ccc(c34)C2=O)c1`, the IC50 is 3.48 µM and the fold change stood at 2.33.
For the molecule `Cc1ccc(S(=O)(=O)Nc2nc3ccccc3nc2Nc2cccc(S(=O)(=O)N3CCCC3)c2)cc1`, the IC50 was 2.64 µM and the fold change came to 2.44.
For `O=c1[nH]c2ccc(N=Cc3c(O)ccc4cc(Br)ccc34)cc2[nH]1`, the IC50 was 0.97 µM and the fold change was determined as 7.85.
Taken in the same sequence, the figures for `O=C(CSc1nc2ncccc2[nH]1)Nc1ccc2c(c1)OCO2` were > 54 µM (inactive) and 1.02.
Taken in the same sequence, the figures for `CC(C)(C)c1ccc(C(=O)Nc2cccc3c(=O)[nH][nH]c(=O)c23)cc1` were 5.97 µM and 3.72.
On to `Nc1cc(C(=O)O)c(N)c2c1C(=O)c1ccccc1C2=O`, for which the IC50 was less than 0.42 µM and the fold change was 4.83.
On to `CSC1=N/C(=C\c2ccccc2F)C(=O)S1`, for which the IC50 is > 54 µM (inactive) and the fold change was 1.05.
Taken in the same sequence, the figures for `Cc1ccc(/C=C/C(=O)OCc2nc(N)nc(Nc3ccccc3C)n2)o1` were > 54 µM (inactive) and 0.917.
Taken in the same sequence, the figures for `Cn1c(SCC(=O)Nc2ccc3nc(SCC(=O)N4CCCC4)sc3c2)nnc1-c1ccc(N)cc1` were 36.4 µM (inactive) and 1.12.
Taken in the same sequence, the figures for `Cn1cccc1/C=C1/C(=O)NC(=O)N(Cc2ccc(F)cc2)C1=O` were > 54 µM (inactive) and 1.04.
Regarding `O=[N+]([O-])c1ccc(O)c(N=Cc2sc3ccccc3c2O)c1`, the IC50 was > 54 µM (inactive) and the fold change amounted to 1.45.
Take `COc1ccc(-c2c(C#N)c(N)nc3sc(C(=O)c4ccc(C)cc4)c(N)c23)cc1`: the IC50 is 23.5 µM and the fold change is 5.33.
Taken in the same sequence, the figures for `CN(C)c1ccc(Nc2c3c4c(cccc4n(C)c2=O)C(=O)c2ccccc2-3)cc1` were > 54 µM (inactive) and 1.1.
As to `CCCOc1cc(N(CC)CC)ccc1/C=C(/C#N)c1nc2ccc(C)cc2[nH]1`, the IC50 is 11.8 µM and the fold change was found to be 12.9.
Taken in the same sequence, the figures for `O=C(O)COc1ccc(-c2nccc(-c3cccs3)n2)cc1` were > 54 µM (inactive) and 1.03.
Consider `COc1ccc(NC(=O)CSc2ccc3c4c(cccc24)C(=O)c2ccccc2-3)cc1`, for which the IC50 is 3.14 µM and the fold change turned out to be 11.
Taken in the same sequence, the figures for `CC(=O)n1c(C=Nc2ccc(Cl)cc2)c(O)c2ccccc21` were 1.09 µM and 31.8.
Taken in the same sequence, the figures for `CN(C)c1ncnc2c1NC1=C(S2)C(=NCCCC(=O)O)CC(C)(C)C1` were 5.71 µM and 3.35.
Taken in the same sequence, the figures for `CSc1c(C#N)c(N)nc2sc(C(=O)c3ccc(Cl)c(Cl)c3)c(N)c12` were 1.74 µM and 9.22.
As for `CCOC(=O)CC(=O)CSc1nc(-c2cccnc2)ccc1C#N`, the IC50 is > 54 µM (inactive) and the fold change amounted to 1.63.
Taken in the same sequence, the figures for `COc1ccc(C2C=C(c3ccc(Cl)cc3)Nc3nc(NC(C)=O)nn32)cc1` (stereo not given) were 5.59 µM and 3.32.
Taken in the same sequence, the figures for `N#CC1=C(N)C(C#N)(C#N)C(c2cccnc2)C2CCCC=C12` (stereo not given) were 4.81 µM and 2.44.
Taken in the same sequence, the figures for `CCOCCCNc1nc2c(C)cccn2c(=O)c1/C=C1\SC(=S)N(C(C)CC)C1=O` (stereo not given) were 13.2 µM and 6.84.
As to `COc1cc(C2C(C#N)=C(N)OC3=C2C(=O)CCC3)c([N+](=O)[O-])cc1OC` (stereo not given), the IC50 is > 54 µM (inactive) and the fold change turned out to be 1.22.
Take `O=C(C1=C(O)C(=O)N(c2ncccn2)C1c1cccs1)c1ccco1` (stereo not given): the IC50 is 5.21 µM and the fold change was 1.87.
Taken in the same sequence, the figures for `O=C(Cn1cnc2scc(-c3cccc([N+](=O)[O-])c3)c2c1=O)NCc1ccco1` were > 54 µM (inactive) and 1.04.
Taken in the same sequence, the figures for `Cc1cc(/C=C(\C#N)c2nc3ccccc3[nH]2)c(C)n1C` were 1.32 µM and 6.63.
Taken in the same sequence, the figures for `COc1ccc(/C=N/N=C2/CC(C)(C)Cc3n[nH]c(=O)cc32)cc1` were 4.15 µM and 3.61.
For the molecule `O=C(ONc1ccc(N=NC(=O)c2ccccc2O)cc1)c1ccccc1`, the IC50 was > 54 µM (inactive) and the fold change came to 1.09.
Taken in the same sequence, the figures for `Cc1cccc(C)c1NC(=O)COC(=O)c1c2c(nc3ccccc13)/C(=C\c1ccc3c(c1)OCO3)CCC2` were > 54 µM (inactive) and 1.32.
Taken in the same sequence, the figures for `CC(C)(C)N1CC(c2nc3ccccc3n2CCOc2ccccc2)CC1=O` (stereo not given) were 15.4 µM and 1.08.
Taken in the same sequence, the figures for `COc1ccc(-c2nnc(-c3cc4c(ccc5ccccc54)oc3=O)o2)cc1` were 12.9 µM and 4.21.
For the molecule `CCCn1c(=C(C#N)C#N)s/c(=C2\C=Cc3ccccc3N2CC)c1=O`, the IC50 is > 54 µM (inactive) and the fold change turned out to be 1.52.
Consider `O=C1/C(=C/c2ccco2)SC(=S)N1c1cccnc1`, for which the IC50 was > 54 µM (inactive) and the fold change worked out at 1.09.
Taken in the same sequence, the figures for `c1ccc(-c2cn3nc(-c4ccccc4)c(-c4ccccc4)nc3n2)cc1` were 0.78 µM and 21.2.
Take `O=C(Nc1ccc2nc3ccccc3nc2c1)c1ccccc1`: the half-maximal inhibitory concentration (IC50) was 15.5 µM and the fold change was 1.85.
Taken in the same sequence, the figures for `COc1ccc(OC)c(C2C3CN(C(C)C)CC=C3C(C#N)=C(N)C2(C#N)C#N)c1` (stereo not given) were 5.91 µM and 3.96.
On to `CC(C)(C)c1cc[n+](-c2[nH]c(=O)sc2/C=N/NC([S-])=Nc2ccccc2)cc1`, for which the IC50 is less than 0.42 µM and the fold change was 13.6.
As for `CCCCC1=CC2=C(c3ccco3)C(=O)C(C)(OC(=O)c3ccc(OC)cc3)C(=O)C2=CN1Cc1ccccc1` (stereo not given), the IC50 is > 54 µM (inactive) and the fold change amounted to 1.7.

The record behind these values is PubChem BioAssay AID1419 (Emory University Molecular Libraries Screening Center, 2008).
